Data taken from US5254563A, “Beta-carbolines, process for their production and their use in pharmaceutical agents” (Schering Aktiengesellschaft, priority 1989, dated 1993).

What was measured:
[1] = Metabolic stability in human liver homogenate; assay type: in vitro ADME; details: 2 hours at 37° C., HPLC/fluorimetry, read-out: Metabolic Stability (substance remaining)
Protocol: The metabolic stability is determined by a homogenate of hepatic tissue in physiological common salt solution being incubated with the test substance for 0 or 2 hours at 37° C. Then, the incubation batch is extracted and the content of test substance in the extract is determined by HPLC/fluorimetry. The substance remaining after 2 hours in comparison with 0 hours is expressed in percent stability.

[2] = test system: benzodiazepine receptors; test: Inhibition of the H^3-BD binding in vivo (displacement of radioactively-labeled flunitrazepam); details: mice, i.p.; 3H-flunitrazepam i.v. after 15 minutes, forebrains removed after another 20 minutes; dose reducing specific binding to 50% of control

| SMILES | remaining at 2 h [1] [%] | Inhibition of the H^3 -BD binding In vivo ED50 [2] |
| --- | --- | --- |
| COCc1c(C(=O)c2ccccc2)ncc2[nH]c3ccc(OCc4ccccc4)cc3c12 [A, 6-Benzyloxy-4-methoxymethyl-3-benzoyl-beta-carboline] | 72 | 5.0 mg/kg |
| COCc1c(C(=O)Oc2ccccc2)ncc2[nH]c3ccc(OCc4ccccc4)cc3c12 [B, 6benzyloxy-4-methoxymethyl-beta-carboline-3-carboxylic acid phenyl ester, reference compound] |  | greater than 90 mg/kg |
